These results are taken from US12037324B2, “Biarylmethyl heterocycles” (Université de Montréal, priority 2016, dated 2024).

Common to all, as to assay type: cell-based
In test [1] the target is T1, hAT1R (Homo sapiens, UniProt P30556).
T1 sequence (P30556 1-359): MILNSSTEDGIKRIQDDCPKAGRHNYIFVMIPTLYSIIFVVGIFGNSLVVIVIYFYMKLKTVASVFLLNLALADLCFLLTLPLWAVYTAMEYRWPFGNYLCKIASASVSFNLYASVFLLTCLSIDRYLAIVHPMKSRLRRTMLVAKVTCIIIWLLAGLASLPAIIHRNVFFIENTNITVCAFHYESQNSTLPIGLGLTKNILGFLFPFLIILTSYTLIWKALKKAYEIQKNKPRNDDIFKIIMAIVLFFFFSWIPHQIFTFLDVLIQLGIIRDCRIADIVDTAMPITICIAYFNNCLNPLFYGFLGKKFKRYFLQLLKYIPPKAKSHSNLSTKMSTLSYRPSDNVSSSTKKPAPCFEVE
Briefly: BRET β-arrestin2 biosensor assay, higher receptor expression (hAT1R 5 ng/well), HEK293 cells. Particulars: for EC50: High AT1R Expression. A general note: Bioluminescence resonance energy transfer reports proximity on the nanometre scale.

In test [2] the target is T2, AGTR1 (Homo sapiens, UniProt P30556).
T2 construct: host or cells: Pathunter CHO-K1 AGTR1 β-arrestin cell line (CHO-K1)
T2 sequence (P30556 1-359): T1 sequence (P30556 1-359)
The test can be described thus: DiscoveRx β-arrestin2 recruitment assay (enzyme complementation, Pathunter CHO-K1 AGTR1 β-arrestin cell line). Conditions: DiscoveRx β-arrestin2 recruitment; for DiscoveRx β-arrestin2 Ymax (%): maximal response. The protocol: In one aspect of the invention, signaling bias of compounds was assessed by comparing the relative activity of compounds to activate both the β-arrestin and Gq signaling pathways. In order to confirm signaling bias, compounds were studied in two different assay formats. DiscoveRx β-arrestin2 Recruitment and IP1 Assays β-arrestin2 recruitment to activated receptors can be assessed using an enzyme complementation method (Zhao, Jones et al. 2008). […] Cells (5000/well) were plated into 1536 well plates (Cellocoat plates, Greiner Bio One, Monroe, NC) 14-16 hours before each experiment in 20 μl DMEM/F12 medium (Thermo-Fisher Scientific, Carlsbad, CA) containing heat-inactivated 1% fetal bovine serum. Subsequently, the compounds of interest were added at varying concentrations to the wells in a volume of 200 nl and the cells incubated for 90 min at 37° C. The detection reagent (10 μl) was added to each well and the plates incubated at room temperature for 1 hour before measurement of chemiluminescence using an EnVision Multilabel Reader (Perkin-Elmer, Waltham, MA). The data are processed using Toolset for Runmaster QCMulti. Concentration-response curves are fitted and EC50s (agonist mode) and IC50s (antagonist mode) estimated using a 4-parameter logistic equation. Compound activities are reported as a relative percentage to the maximal effect of All in the assays.
(In general: Recruitment of arrestin is a read-out of receptor activation apart from second messengers.)

The target of test [3] is T2, AGTR1. Briefly: DiscoveRx IP1 accumulation assay (HTRF), agonist mode, Pathunter CHO-K1 AGTR1 β-arrestin cell line. Conditions: for EC50: read-out: IP-1 EC50. The protocol:
In one aspect of the invention, signaling bias of compounds was assessed by comparing the relative activity of compounds to activate both the β-arrestin and Gq signaling pathways. In order to confirm signaling bias, compounds were studied in two different assay formats.
DiscoveRx β-arrestin2 Recruitment and IP1 Assays
Gq activation can be assessed by measuring the accumulation of inositol phosphates (e.g. IP3, IP1) that are liberated following activation of phospholipase C by Gq (Thomsen, Frazer et al. 2005). In the current invention we have utilized the DiscoveRx Pathunter CHO-K1 AGTR1 β-arrestin cell line to also measure IP1 accumulation in response to compounds. IP1 accumulation was measured in both agonist and antagonist modes. In agonist mode, cells are plated as above 14-16 hours before the experiment. The medium is then removed and compounds at varying concentrations added in a final volume of 20 μl. The cells are incubated at 37° C. for 90 min. IP1 accumulation detected using a commercial HTRF assay according to manufacturer's instructions (Cisbio, Bedford, MA). Specifically, 4 μl of D2-conjugate solution (diluted 1:20 in Cisbio HTRF assay buffer) is added to each well, followed by the addition of 4 μl of anti-IP1 cryptate diluted 1:20 in HTRF assay buffer and the plates incubated for 20 min at room temperature. 14 μl from each well is measured using an Envision multi-label reader and data processed using Toolset for Runmaster QCMulti. Concentration-response curves are fitted and EC50s (agonist mode) and IC50s (antagonist mode) estimated using a 4-parameter logistic equation. Compound activities are reported as a relative percentage to the maximal effect of All in the assays.
In general terms: Time-resolved FRET reads energy transfer from a long-lived donor to a nearby acceptor.

On to `CCc1nc2c(C)cc(C)nc2n1Cc1ccc(-c2cc(-c3ccccc3)ccc2OCC(=O)O)cc1` [Example 69, 2-((4″-((2-ethyl-5,7-dimethyl-3H-imidazo[4,5-b]pyridin-3-yl)methyl)-[1,1′:3′,1″-terphenyl]-4′-yl)oxy)acetic acid], for which, in test [1], the “BRET β-Arrestin2 High AT1R Expression Ymax (%)” value was determined as 10.3% and the midpoint of the response, the EC50, lay at 1500 nM. Besides, in test [2], the response was half-maximal at 376 nM (EC50) and the “DiscoveRx β-arrestin2 Ymax (%)” value came to 8.5%. Besides, in test [3], the concentration giving a half-maximal response (EC50) is > 100000 nM.

Take `CCc1nc2c(C)cc(C)nc2n1Cc1ccc(-c2cc(-c3ccc(C(F)(F)F)cc3)ccc2-c2nn[nH]n2)cc1` [Example 7]: in test [1], the “BRET β-Arrestin2 High AT1R Expression Ymax (%)” value is recorded as 60.0% and the EC50 came to 37.4 nM. In test [2], the concentration for a half-maximal effect (EC50) amounted to 14.4 nM and the “DiscoveRx β-arrestin2 Ymax (%)” value stood at 21.6%. In addition, in test [3], the “IP-1 Ymax (%)” value turned out to be 9.2% and the EC50 came out at 83.9 nM.

As to `CCCCOC(=O)NS(=O)(=O)c1sc(-c2ccccc2C)cc1-c1ccc(Cn2c(CC)nc3c(C)cc(C)nc32)cc1` [Example 40, Butyl (3-(4-((2-ethyl-5,7-dimethyl-3H-imidazo[4,5-b]pyridin-3-yl)methyl)phenyl)-5-(o-tolyl)thiophen-2-yl)sulfonylcarbamate], in test [1], the “BRET β-Arrestin2 High AT1R Expression Ymax (%)” value is listed as 84.6% and the midpoint of the response, the EC50, lay at 14 nM. In test [2], the EC50 amounted to 9.3 nM and the “DiscoveRx β-arrestin2 Ymax (%)” value is listed as 36.4%. Further, in test [3], the “IP-1 Ymax (%)” value is listed as 8.5% and the EC50 was 11.9 nM.

Regarding `CCc1nc2c(C)cc(C)nc2n1Cc1ccc(-c2cc(C3CCCCC3)ccc2-c2nn[nH]n2)cc1` [Example 71, 3-((5′-Cyclohexyl-2′-(2H-tetrazol-5-yl)-[1,1′-biphenyl]-4-yl)methyl)-2-ethyl-5,7-dimethyl-3H-imidazo[4,5-b]pyridine], in test [1], the “BRET β-Arrestin2 High AT1R Expression Ymax (%)” value was determined as 86.6% and a half-maximal effect (EC50) was put at 23.3 nM. Besides, in test [2], the concentration giving a half-maximal response (EC50) worked out at 17.4 nM and the “DiscoveRx β-arrestin2 Ymax (%)” value is given as 46.8%. Further, in test [3], the “IP-1 Ymax (%)” value is given as 11.8% and the EC50 turned out to be 48600 nM.

Consider `CCc1nc2c(C)cc(C)nc2n1Cc1ccc(-c2cc(C3CCCO3)ccc2-c2nn[nH]n2)cc1` (single isomer, unassigned) [Example 74, 2-ethyl-5,7-dimethyl-3-((5′-(tetrahydrofuran-2-yl)-2′-(2H-tetrazol-5-yl)-[1,1′-biphenyl]-4-yl)methyl)-3H-imidazo[4,5-b]pyridine], for which, in test [1], the “BRET β-Arrestin2 High AT1R Expression Ymax (%)” value is 3.2% and the concentration for a half-maximal effect (EC50) is > 100000 nM. In test [2], a half-maximal response (EC50) required 391 nM and the “DiscoveRx β-arrestin2 Ymax (%)” value is recorded as 3.9%. Also, in test [3], the EC50 is > 100000 nM.

Take `CCCCC1=NC2(CCCC2)C(=O)N1Cc1ccc(-c2cc(N3CCCC(F)(F)C3)ccc2-c2noc(=O)[nH]2)cc1` [Example 121, 3-(4′-((2-butyl-4-oxo-1,3-diazaspiro[4.4]non-1-en-3-yl)methyl)-5-(3,3-difluoropiperidin-1-yl)-[1,1′-biphenyl]-2-yl)-1,2,4-oxadiazol-5(4H)-one]: in test [1], the “BRET β-Arrestin2 High AT1R Expression Ymax (%)” value is 98.0% and the concentration for a half-maximal effect (EC50) is 431 nM. In addition, in test [2], the EC50 is 302 nM and the “DiscoveRx β-arrestin2 Ymax (%)” value is listed as 47.4%. For the same compound, in test [3], the “IP-1 Ymax (%)” value was found to be 7.2% and the EC50 was determined as 368 nM.

Turning to `CCc1nc2c(C)cc(C)nc2n1Cc1ccc(-c2cc(N(C)c3ccccc3)ccc2-c2nn[nH]n2)cc1` [Example 94], in test [1], the “BRET β-Arrestin2 High AT1R Expression Ymax (%)” value amounted to 76.8% and the EC50 was 20.8 nM. For the same compound, in test [2], the response was half-maximal at 13.1 nM (EC50) and the “DiscoveRx β-arrestin2 Ymax (%)” value is recorded as 35.9%. For the same compound, in test [3], the “IP-1 Ymax (%)” value is 9.0% and the EC50 is 32.7 nM.

In the case of `CCCCOC(=O)NS(=O)(=O)c1sc(-c2cccnc2OC)cc1-c1ccc(Cn2c(CC)nc3c(C)cc(C)nc32)cn1` [Example 48, Butyl (3-(5-((2-ethyl-5,7-dimethyl-3H-imidazo[4,5-b]pyridin-3-yl)methyl)pyridin-2-yl)-5-(2-methoxypyridin-3-yl)thiophen-2-yl)sulfonylcarbamate], in test [1], the “BRET β-Arrestin2 High AT1R Expression Ymax (%)” value is recorded as 43.8% and the concentration for a half-maximal effect (EC50) is 40.6 nM. Besides, in test [2], the response was half-maximal at 106 nM (EC50) and the “DiscoveRx β-arrestin2 Ymax (%)” value is 20.6%. Besides, in test [3], the “IP-1 Ymax (%)” value was 10.0% and the EC50 is 357 nM.

Regarding `CCc1nc2c(C)cc(C)nc2n1Cc1ccc(-c2cc(-n3cccc3)ccc2-c2nn[nH]n2)cc1` [Example 90], in test [1], the “BRET β-Arrestin2 High AT1R Expression Ymax (%)” value stood at 77.7% and a half-maximal effect (EC50) was put at 27.7 nM. In test [2], a half-maximal response (EC50) required 55.4 nM and the “DiscoveRx β-arrestin2 Ymax (%)” value was 23.2%. Also, in test [3], the “IP-1 Ymax (%)” value is reported as 6.0% and the EC50 was 39.8 nM.

`CCCCOC(=O)NS(=O)(=O)c1sc(-c2ccccc2C(F)(F)F)cc1-c1ccc(Cn2c(CC)nc3c(C)cc(C)nc32)cn1` [Example 46, Butyl (3-(5-((2-ethyl-5,7-dimethyl-3H-imidazo[4,5-b]pyridin-3-yl)methyl)pyridin-2-yl)-5-(2-(trifluoromethyl)phenyl)thiophen-2-yl)sulfonylcarbamate]: in test [1], the “BRET β-Arrestin2 High AT1R Expression Ymax (%)” value is 84.8% and the EC50 amounted to 13.1 nM. For the same compound, in test [2], a half-maximal response (EC50) required 32 nM and the “DiscoveRx β-arrestin2 Ymax (%)” value was found to be 45.1%. Further, in test [3], the “IP-1 Ymax (%)” value is reported as 15.4% and the EC50 turned out to be 355 nM.

With `CCc1nc2c(C)cc(C)nc2n1Cc1ccc(-c2cc(-c3cncn3C)ccc2-c2nn[nH]n2)cc1` [Example 58], in test [1], the “BRET β-Arrestin2 High AT1R Expression Ymax (%)” value is reported as 46.2% and the EC50 came to 190 nM. Further, in test [2], the midpoint of the response, the EC50, lay at 86.2 nM and the “DiscoveRx β-arrestin2 Ymax (%)” value came out at 12.7%. Moreover, in test [3], the “IP-1 Ymax (%)” value turned out to be 3.1% and the EC50 is 427 nM.

As to `CCCCC1=NC2(CCCC2)C(=O)N1Cc1ccc(-c2cc(-c3ccccc3)ccc2C(=O)O)cc1` [Example 145, 4″-((2-butyl-4-oxo-1,3-diazaspiro[4.4]non-1-en-3-yl)methyl)-[1,1′:3′,1″-terphenyl]-4′-carboxylic acid], in test [1], the “BRET β-Arrestin2 High AT1R Expression Ymax (%)” value came out at 81.5% and the response was half-maximal at 64.4 nM (EC50). Also, in test [2], a half-maximal effect (EC50) was put at 27.3 nM and the “DiscoveRx β-arrestin2 Ymax (%)” value came out at 36.3%. For the same compound, in test [3], the “IP-1 Ymax (%)” value is listed as 3.1% and the EC50 amounted to 57.1 nM.

Turning to `CCc1nc2c(C)cc(C)nc2n1Cc1ccc(-c2cc(N3CCC(C)CC3)ccc2-c2nn[nH]n2)cc1` [Example 97, 2-ethyl-5,7-dimethyl-3-((5′-(4-methylpiperidin-1-yl)-2′-(2H-tetrazol-5-yl)-[1,1′-biphenyl]-4-yl)methyl)-3H-imidazo[4,5-b]pyridine], in test [1], the “BRET β-Arrestin2 High AT1R Expression Ymax (%)” value is listed as 79.7% and the concentration giving a half-maximal response (EC50) is 31.1 nM. Moreover, in test [2], the EC50 turned out to be 15.1 nM and the “DiscoveRx β-arrestin2 Ymax (%)” value was found to be 34.3%. Moreover, in test [3], the “IP-1 Ymax (%)” value was 7.3% and the EC50 came to 47.3 nM.

As to `CCc1nc2c(C)cc(C)nc2n1Cc1ccc(-c2cc(-c3cccnc3)ccc2-c2nn[nH]n2)cc1` [Example 52], in test [1], the “BRET β-Arrestin2 High AT1R Expression Ymax (%)” value amounted to 23.4% and the EC50 stood at 30.7 nM. Also, in test [2], the 50% effective concentration (EC50) is 5.5 nM and the “DiscoveRx β-arrestin2 Ymax (%)” value came out at 5.0%. Further, the concentration giving a half-maximal response (EC50) in test [3] is > 1000 nM.

As a reminder, the EC50 is the midpoint of the concentration-response curve.
